Assay results from patent US8466186B2, “Compounds” (Boehringer Ingelheim International GmbH, priority 2010, dated 2013).

Target: T1, recombinant human mPGES-1 (Homo sapiens, UniProt O14684)
T1 construct: made in house; host or cells: Rosetta E. coli (membrane/microsome fraction)
T1 sequence (O14684 1-152): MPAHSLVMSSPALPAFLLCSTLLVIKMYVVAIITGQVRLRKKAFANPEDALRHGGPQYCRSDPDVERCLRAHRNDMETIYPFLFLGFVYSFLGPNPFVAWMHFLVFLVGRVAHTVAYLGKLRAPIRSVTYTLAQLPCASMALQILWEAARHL
Test: Assay A: mPGES-1 enzyme assay (HTRF detection of PGE2)
Format: biochemical
Settings: biological assay A; microsomes from E. coli expressing recombinant human mPGES-1; read-out: mPGES-1 inhibitory effect IC50
Text: The aim of this assay is to determine the affinity of a test compound for the mPGES-1 enzyme.
• 1. Riendeau, D., R. Aspiotis, D. Ethier, Y. Gareau, E. Grimm, J. Guay, S. Guiral, H. Juteau, J. Mancini, N. Methot, J. Rubin, and R. Friesen, Inhibitors of the inducible microsomal prostaglandin E2 synthase (mPGES-1) derived from MK-886. Bioorg Med Chem Lett, 2005. 15(14): p. 3352-3355. • 2. Cote, B., L. Boulet, C. Brideau, D. Claveau, D. Ethier, R. Frenette, M. Gagnon, A. Giroux, J. Guay, S. Guiral, J. Mancini, E. Martins, F. Masse, N. Methot, D. Riendeau, J. Rubin, D. Xu, H. Yu, Y. Ducharme, and R. Friesen, Substituted phenanthrene imidazoles as potent, selective, and orally active mPGES-1 inhibitors. Bioorg Med Chem Lett, 2007. 17(24): p. 6816-6820. Assay A: mPGES-1 Enzyme Assay List of Reagents Used: • Glutathione (Sigma, G-4251) • Freeze culture in Rosetta E coli expression strain. • LB growth media with Ampillicillin (Amp) final concentration in culture 50 μg/mL • Chloroamphenicol stock 34 mg/mL (chloro) final concentration in culture 34 μg/mL • Sterile growth flasks for 500 mL-1 liter cultures • 0.1 M KP, buffer pH 7.4 • 9.25% HCl • PGH2 (0.25 mM) • Fe (II) Cl2 tetrahydrate, 99% (Sigma, 220229) • 384-well plate with compounds • 96-well plate, polypropylene (Thermo fast 96 skirted VWR) • 384-well plate polypropylene PCR plate (Greiner 785201) • Greiner 384-well plate pp (In vitro cat. no. 781280) • Adhesive sealing film for 96-well plates (Sigma-Aldrich) • Aluminium foil (PCR foil, 310-0030-127-471 from Labora) • PBS (GIBCO 14040) • Prostaglandin E2 Assay (Cisbio, cat. no. 62P2APEC) • Biomek FX robot (Beckman Coulter) • Biomek NX robot (Beckman Coulter) • Multidrop; micro or combi (ThermoLabsystems) • Plate reader: Safire2 (Tecan)
Microsomes from Rosetta E. coli bacteria expressing recombinant human mPGES-1 can be derived as described below:
Inoculate 5 mL LB with Amp and Chloro with bacteria from freeze culture. Incubate overnight at 37° C. with 200 rpm. Thereafter, inoculate 500-800 mL LB containing Amp and Chloro with the 5 mL on culture and grow to OD640 of 0.6-0.8. Chill the culture to +4° C. before induction. Induce the culture with IPTG at a final concentration of 400 μM. Express the protein at room temp 18-23° C. with 200 rpm shaking overnight.
The following steps can be performed on the following day: • 1. Spin down the cells in 250 mL centrifuge flasks for 15 min at 7000 rpm • 2. Dissolve the pellet from 250 mL culture in 12.5 mL homogenization buffer • 3. Disintegrate the cells by sonication, 4×10 seconds at 35% amplitude • 4. Add 2.5 mL MgCl2 (100 mM) and DNase 12.5 μL (0.8 mg/mL) and incubate on ice for 30 min • 5. Spin down the bacteria debris and save the supernatant, 7000 rpm for 15 min • 6. Isolate the protein containing membranes in the supernatant by ultracentrifugation 45000×g for 1 hour. • 7. Discard the supernatant and dissolve the pellet in 20 mM KPi buffer and aliquot the enzyme and store aliquots at −80° C.
Before each experiment is performed an aliquot of the enzyme is thawed and it can then be dissolved in 0.1 M KP, pH 7.4 buffer containing 2.5 mM GSH. 50 μL of this enzyme solution is subsequently dispensed in a 384-well plate at room temperature. 0.5 μL of the inhibitor dissolved in DMSO is thereafter added to each well and incubated for 25 minutes at room temperature. Subsequently, 2 μL of PGH2 dissolved in an appropriate solvent is added to each well and after one minute at room temperature, the acidified stop solution containing FeCl2 is added. 4 μL of the total volume is transferred to a separate plate and diluted 750-fold in two separate steps before quantification of PGE2.
In order to quantitate the amount of PGE2 that has been formed, a homogenous time resolved fluorescent (HTRF) detection of PGE2 can be performed by the use of a commercially available kit from CisBio essentially according to the manufacturer's protocol. […]

| SMILES | IC50 [nM] |
| --- | --- |
| O=C(NCc1ccc(Cl)c(Nc2nc3cc(Cl)c(N4CCC(C(F)(F)F)CC4)cc3[nH]2)c1)C1(C(F)(F)F)CC1 [Example 75] | 8.7 |
| Cn1c(Nc2cc(CNC(=O)C(C)(O)C(F)(F)F)ccc2Cl)nc2cc(Cl)c(N3CCCC(C(F)(F)F)C3)cc21 (stereo not shown) [Example 14] | 4.8 |
| CC(=O)N1CCN(c2cc3[nH]c(Nc4cc(CNC(=O)C5(C(F)(F)F)CC5)ccc4Cl)nc3cc2Cl)CC1 [Example 74] | 144 |
| O=S(=O)(NCc1ccc(Cl)c(Nc2nc3cc(N4CCCC4)ccc3[nH]2)c1)c1ccco1 [Example 29] | 105 |
| Cn1c(Nc2cc(CNC(=O)C3(C(F)(F)F)CC3)ccc2Cl)nc2cc(Cl)c(N3CCC(C)(C)CC3)cc21 [Example 78] | 1.7 |
| CC(C)(C(=O)NCc1ccc(Cl)c(Nc2nc3cc(N4CCCC4)ccc3[nH]2)c1)C(F)(F)F [Example 17] | 24 |
| COC1CCN(c2cc3c(cc2Cl)nc(Nc2cc(CNC(=O)C4(C(F)(F)F)CC4)ccc2Cl)n3C)CC1 [Example 77] | 10 |
| CN(C)CC1CCCN1c1cc2[nH]c(Nc3cc(CNC(=O)C(C)(C)C)ccc3Cl)nc2cc1Cl (stereo not shown) [Example 7, N-{4-Chloro-3-[5-chloro-6-(2-dimethylaminomethyl-pyrrolidin-1-yl)-1H-benzimidazol-2-ylamino]-benzyl}-2,2-dimethyl-propionamide] | 74 |
| Cn1c(Nc2cc(CNC(=O)C3(C(F)(F)F)CC3)ccc2Cl)nc2cc(C#N)c(N3CCC(C(F)(F)F)CC3)cc21 [Example 82, N-{4-Chloro-3-[5-cyano-1-methyl-6-(4-trifluoromethyl-piperidin-1-yl)-1H-benzimidazol-2-ylamino]-benzyl}-1-trifluoromethyl-cyclopropanamide] | 1.7 |
| CCCC(C)(C)C(=O)NCc1ccc(Cl)c(Nc2nc3cc(N4CCCC4)ccc3[nH]2)c1 [Example 18] | 79 |
| Cn1c(Nc2cc(CNC(=O)c3c(Cl)cncc3Cl)ccc2Cl)nc2cc(Cl)c(N3CCCC(C(F)(F)F)C3)cc21 (stereo not shown) [Example 54] | 6.6 |
| Cn1c(Nc2cc(CNC(=O)c3c(Cl)cccc3Cl)ccc2Cl)nc2cc(Cl)c(N3CCCC(C(F)(F)F)C3)cc21 (stereo not shown) [Example 68] | 4 |
| Cn1c(Nc2c(Cl)ccc(CNC(=O)C(C)(C)C)c2Cl)nc2cc(Cl)c(N3CCC(C(F)(F)F)CC3)cc21 [Example 5, N-{2,4-Dichloro-3-[5-chloro-1-methyl-6-(4-trifluoromethyl-piperidin-1-yl)-1H-benzimidazol-2-ylamino]-benzyl}-2,2-dimethyl-propionamide] | 3.8 |
| COCCn1c(Nc2cc(CNC(=O)C3(C(F)(F)F)CC3)ccc2Cl)nc2cc(Cl)c(N3CCC(C(F)(F)F)CC3)cc21 [Example 81] | 6.7 |
| O=S(=O)(NCc1ccc(Cl)c(Nc2nc3ccc(N4CCCC4)cc3[nH]2)c1)C1CC1 [Example 30, N-{4-Chloro-3-[5-(pyrrolidin-1-yl)-1H-benzimidazol-2-ylamino]-benzyl}cyclopropylsulfonamide] | 300 |

The next lines start with the values.

| IC50 [nM] | SMILES |
| --- | --- |
| 5.8 | Cn1c(Nc2cc(CNC(=O)C(C)(N)C(F)(F)F)ccc2C(F)(F)F)nc2cc(Cl)c(N3CCC(C(F)(F)F)CC3)cc21 (stereo not shown) [Example 108] |
| 29 | Cn1c(Nc2cc(CNC(=O)C3(C)CCCCC3)ccc2Cl)nc2ccc(N3CCCC3)cc21 [Example 123] |
| 3.6 | Cn1c(Nc2cc(CNC(=O)C3(C(F)(F)F)CC3)ccc2Cl)nc2cc(Cl)c(N3CCC(c4ccc(F)cc4)CC3)cc21 [Example 91] |
| 2.4 | Cn1c(Nc2cc(CNC(=O)C(C)(C)C)ccc2C(F)(F)F)nc2cc(Cl)c(N3CCC(C(F)(F)F)CC3)cc21 [Example 104] |
| 124 | Cn1c(Nc2cc(CNC(=O)C3(C(F)(F)F)CC3)ccc2Cl)nc2ccc(N3CCCC3)cc21 [Example 132] |
| 4.8 | Cn1c(Nc2cc(CNC(=O)C3(C(F)(F)F)CC3)c(F)cc2Cl)nc2cc(Cl)c(N3CCC(C(F)(F)F)CC3)cc21 [Example 114, N-{4-Chloro-2-fluoro-5-[5-chloro-1-methyl-6-(4-trifluoromethyl-piperidin-1-yl)-1H-benzimidazol-2-ylamino]-benzyl}-1-trifluoromethyl-cyclopropanamide] |
| 3.5 | Cn1c(Nc2cc(CNC(=O)C(C)(F)F)ccc2Cl)nc2cc(Cl)c(N3CCC(C(F)(F)F)CC3)cc21 [Example 94, N-{4-Chloro-3-[5-chloro-1-methyl-6-(4-trifluoromethyl-piperidin-1-yl)-1H-benzimidazol-2-ylamino]-benzyl}-2,2-difluoro-propionamide] |
| 19 | Cn1c(Nc2cc(CNC(=O)C3(C(F)(F)F)CC3)ccc2F)nc2cc(Cl)c(N3CCC(C(F)(F)F)CC3)cc21 [Example 111, N-{4-Fluoro-3-[5-chloro-1-methyl-6-(4-trifluoromethyl-piperidin-1-yl)-1H-benzimidazol-2-ylamino]-benzyl}-1-trifluoromethyl-cyclopropanamide] |
| 5.7 | Cn1c(Nc2cc(CNC(=O)C(C)(F)F)ccc2C(F)(F)F)nc2cc(Cl)c(N3CCC(C(F)(F)F)CC3)cc21 [Example 106] |
| 2.1 | Cn1c(Nc2cc(CNC(=O)C(C)(F)F)ccc2Cl)nc2cc(Cl)c(N3CCC(c4ccccc4)CC3)cc21 [Example 95] |
| 266 | CN1CCN(c2cc3[nH]c(Nc4cc(CNC(=O)C5(C)CCCCC5)ccc4Cl)nc3cc2Cl)CC1 [Example 120] |
| 5.2 | Cn1c(Nc2cc(CN[S+]([O-])C(C)(C)C)ccc2C(F)(F)F)nc2cc(Cl)c(N3CCC(C(F)(F)F)CC3)cc21 (stereo not shown) [Example 109, N-(4-Trifluoromethyl-3-(5-chloro-1-methyl-6-(4-trifluoromethyl-piperidin-1-yl)-1H-benzo[d]imidazol-2-ylamino)benzyl)-2-methylpropane-2-sulfinamide] |
| 7.3 | Cn1c(Nc2cc(CNC(=O)C3(C(F)(F)F)CC3)ccc2Cl)nc2cc(F)c(N3CCC(C(F)(F)F)CC3)c(F)c21 [Example 84, N-{4-Chloro-3-[5,7-difluoro-1-methyl-6-(4-trifluoromethyl-piperidin-1-yl)-1H-benzimidazol-2-ylamino]-benzyl}-1-trifluoromethyl-cyclopropanamide] |
| 6.7 | COC[C@@H]1CCCN1c1cc2c(cc1Cl)nc(Nc1cc(CNC(=O)C3(C(F)(F)F)CC3)ccc1Cl)n2C [Example 126] |
| 2.8 | Cn1c(Nc2cc(CNC(=O)C3(C(F)(F)F)CC3)ccc2C(F)(F)F)nc2cc(Cl)c(N3CCC(C(F)(F)F)CC3)cc21 [Example 101, N-{4-Trifluoromethyl-3-[5-chloro-1-methyl-6-(4-trifluoromethyl-piperidin-1-yl)-1H-benzimidazol-2-ylamino]-benzyl}-1-trifluoromethyl-cyclopropanamide] |
| 25 | COC[C@@H]1CCCN1c1cc2[nH]c(Nc3cc(CNC(=O)C4(C(F)(F)F)CC4)ccc3Cl)nc2cc1Cl [Example 133, (S)—N-{4-Chloro-3-[5-chloro-6-(2-methoxymethyl-pyrrolidin-1-yl)-1H-benzo[d]imidazol-2-ylamino]benzyl}-1-trifluoromethyl-cyclopropanecarboxamide] |
